Legend:
giant foxtail = test: Test A postemergence; assay type: in vivo, Setaria faberii
How it was run: (§1)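 Compounds in non-phytotoxic solvent with surfactant applied as soil spray preemergence, or postemergence to plants 2-10 cm at one- to two-leaf stage, in loam/sand. After approximately 10 days in greenhouse, injury rated visually versus untreated controls, 0 (no effect) to 100 (complete control).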

wheat = test: Test A postemergence; assay type: in vivo, Triticum aestivum
How it was run: as §1

rice = test: Test B flooded paddy test; assay type: in vivo, Oryza sativa; conditions: Flood, 250 g ai/ha, 0 to 100 scale where 0 is no effect and 100 is complete control
How it was run: (§2)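 Post-emergence paddy-water application at the 2-leaf stage, with 3 cm flood kept for the whole test. Response was judged visually relative to controls after 13 to 15 greenhouse days, 0 indicating no effect and 100 complete control.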

Heteranthera limosa = test: Test B flooded paddy test; assay type: in vivo; conditions: Flood, 250 g ai/ha, 0 to 100 scale where 0 is no effect and 100 is complete control
How it was run: as §2

lambsquarters = test: Test C postemergence; assay type: in vivo, Chenopodium album
How it was run: (§3)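 Rated visually on 0–100 (100 = complete control) after 13–15 days under glass. Treatments went onto freshly seeded loam/sand soil or onto emerged plants at the 1- to 4-leaf stage, using a surfactant-containing solvent formulation.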

morningglory = test: Test C postemergence; assay type: in vivo, Ipomoea coccinea
How it was run: as §3

pigweed = test: Test C postemergence; assay type: in vivo, Amaranthus retroflexus
How it was run: as §3

soybean = test: Test C postemergence; assay type: in vivo, Glycine max
How it was run: as §3

oilseed rape = test: Test C postemergence; assay type: in vivo, Brassica napus
How it was run: as §3

kochia = test: Test C postemergence; assay type: in vivo, Kochia scoparia
How it was run: as §3

velvetleaf = test: Test C postemergence; assay type: in vivo, Abutilon theophrasti
How it was run: as §3

[1] = 31 g ai/ha, 0 to 100 scale, 0 no effect, 100 complete control
[2] = 125 g ai/ha, 0 to 100 scale where 0 is no effect and 100 is complete control
[3] = 16 g ai/ha, postemergence, 0 is no effect, 100 is complete control
[4] = 125 g ai/ha, postemergence, visual rating, scale 0 to 100 (0 no effect, 100 complete control)
[5] = Postemergence, 62 g ai/ha, scale 0 to 100 (0 no effect, 100 complete control)
[6] = 125 g ai/ha, 0 to 100 scale, 0 no effect, 100 complete control
[7] = 31 g ai/ha, postemergence, visual rating, scale 0 to 100 (0 no effect, 100 complete control), 13 to 15 days
[8] = Postemergence, 62 g ai/ha, scale 0 to 100 (0 no effect, 100 complete control), 13 to 15 days
[9] = 500 g ai/ha, 0 to 100 scale where 0 is no effect and 100 is complete control

N#Cc1cnn(-c2c(Br)cccc2Oc2ncc(Cl)cn2)c1 [Compound 140]
Plant response rating, Foxtail, Giant (giant foxtail; [1]): 30
Foxtail, Giant plant response rating (giant foxtail; [2]): 90
Plant response rating, Wheat (wheat; [1]): 0
Wheat plant response rating (wheat; [2]): 0
Plant response rating, Rice (rice): 0
Plant response rating, Ducksalad (Heteranthera limosa): 80
Plant response rating (0 to 100), Lambsquarters (lambsquarters; [3]): 35
Plant response rating, Lambsquarters (lambsquarters; [4]): 85
Plant response rating, Lambsquarters (lambsquarters; [5]): 80
Plant response rating (0 to 100), Morningglory (morningglory; [3]): 0
Plant response rating, Morningglory (morningglory; [4]): 70
Plant response rating, Morningglory (morningglory; [5]): 75
Plant response rating (0 to 100), Pigweed (pigweed; [3]): 85
Plant response rating, Pigweed (pigweed; [4]): 90
Plant response rating, Pigweed (pigweed; [5]): 90
Plant response rating (0 to 100), Soybean (soybean; [3]): 25
Plant response rating, Soybean (soybean; [4]): 75
Plant response rating, Soybean (soybean; [5]): 65
Plant response rating (0 to 100), Oilseed Rape (oilseed rape; [3]): 5
Plant response rating, Oilseed Rape (oilseed rape; [4]): 50
Plant response rating, Oilseed Rape (oilseed rape; [5]): 50
Plant response rating (0 to 100), Kochia (kochia; [3]): 70
Plant response rating, Kochia (kochia; [4]): 90
Plant response rating, Kochia (kochia; [5]): 85
Plant response rating (0 to 100), Velvetleaf (velvetleaf; [3]): 5
Plant response rating, Velvetleaf (velvetleaf; [4]): 60
Plant response rating, Velvetleaf (velvetleaf; [5]): 45

FC(F)Oc1cnn(-c2c(Cl)cccc2Oc2ncc(Cl)cn2)c1 [Compound 258]
Plant response rating, Foxtail, Giant (giant foxtail; [1]): 20
Plant response rating, Foxtail, Giant (giant foxtail; [6]): 70
Plant response rating, Wheat (wheat; [1]): 0
Plant response rating, Wheat (wheat; [6]): 50
Plant response rating, Rice (rice): 30
Plant response rating, Ducksalad (Heteranthera limosa): 100
Plant response rating (0 to 100), Lambsquarters (lambsquarters; [3]): 50
Lambsquarters plant response rating (lambsquarters; [7]): 65
Plant response rating, Lambsquarters (lambsquarters; [4]): 90
Plant response rating, Lambsquarters (lambsquarters; [8]): 90
Plant response rating (0 to 100), Morningglory (morningglory; [3]): 65
Morningglory plant response rating (morningglory; [7]): 85
Plant response rating, Morningglory (morningglory; [4]): 95
Plant response rating, Morningglory (morningglory; [8]): 85
Plant response rating (0 to 100), Pigweed (pigweed; [3]): 75
Pigweed plant response rating (pigweed; [7]): 85
Plant response rating, Pigweed (pigweed; [4]): 90
Plant response rating, Pigweed (pigweed; [8]): 85
Plant response rating (0 to 100), Soybean (soybean; [3]): 50
Soybean plant response rating (soybean; [7]): 75
Plant response rating, Soybean (soybean; [4]): 95
Plant response rating, Soybean (soybean; [8]): 70
Plant response rating (0 to 100), Oilseed Rape (oilseed rape; [3]): 70
Oilseed Rape plant response rating (oilseed rape; [7]): 85
Plant response rating, Oilseed Rape (oilseed rape; [4]): 98
Plant response rating, Oilseed Rape (oilseed rape; [8]): 95
Plant response rating (0 to 100), Kochia (kochia; [3]): 90
Kochia plant response rating (kochia; [7]): 95
Plant response rating, Kochia (kochia; [4]): 100
Plant response rating, Kochia (kochia; [8]): 100
Plant response rating (0 to 100), Velvetleaf (velvetleaf; [3]): 55
Velvetleaf plant response rating (velvetleaf; [7]): 65
Plant response rating, Velvetleaf (velvetleaf; [4]): 80
Plant response rating, Velvetleaf (velvetleaf; [8]): 75

N#Cc1cccc(Oc2ncc(Cl)cn2)c1-n1cc(SC(F)(F)F)cn1 [Compound 134, 3-[(5-chloro-2-pyrimidinyl)oxy]-2-[4-(trifluoromethylthio)-1-pyrazolyl]benzonitrile]
Foxtail, Giant plant response rating (giant foxtail; [2]): 70
Plant response rating, Foxtail, Giant (giant foxtail; [9]): 100
Plant response rating, Wheat (wheat; [9]): 70
plant injury at 125 g/ha (wheat; Triticum aestivum, post-emergence, 240 h, 125 g ai/ha, 0 to 100 scale where 0 is no effect and 100 is complete control, read-out: Wheat plant response rating): 0%
plant injury at 250 g/ha (rice; Oryza sativa, read-out: Plant response rating, Rice): 0%
pest or weed control at 250 g/ha (Heteranthera limosa; Heteranthera limosa, read-out: Plant response rating, Ducksalad): 30%
pest or weed control at 16 g/ha (lambsquarters; Chenopodium album, post-emergence, 16 g ai/ha, postemergence, 0 is no effect, 100 is complete control, read-out: Plant response rating (0 to 100), Lambsquarters): 5%
pest or weed control at 125 g/ha (lambsquarters; Chenopodium album, post-emergence, 125 g ai/ha, postemergence, visual rating, scale 0 to 100 (0 no effect, 100 complete control), read-out: Plant response rating, Lambsquarters): 65%
pest or weed control at 62 g/ha (lambsquarters; Chenopodium album, post-emergence, Postemergence, 62 g ai/ha, scale 0 to 100 (0 no effect, 100 complete control), read-out: Plant response rating, Lambsquarters): 75%
pest or weed control at 16 g/ha (morningglory; Ipomoea, post-emergence, 16 g ai/ha, postemergence, 0 is no effect, 100 is complete control, read-out: Plant response rating (0 to 100), Morningglory): 70%
pest or weed control at 125 g/ha (morningglory; Ipomoea, post-emergence, 125 g ai/ha, postemergence, visual rating, scale 0 to 100 (0 no effect, 100 complete control), read-out: Plant response rating, Morningglory): 95%
pest or weed control at 62 g/ha (morningglory; Ipomoea, post-emergence, Postemergence, 62 g ai/ha, scale 0 to 100 (0 no effect, 100 complete control), read-out: Plant response rating, Morningglory): 85%
pest or weed control at 16 g/ha (pigweed; Amaranthus retroflexus, post-emergence, 16 g ai/ha, postemergence, 0 is no effect, 100 is complete control, read-out: Plant response rating (0 to 100), Pigweed): 75%
pest or weed control at 125 g/ha (pigweed; Amaranthus retroflexus, post-emergence, 125 g ai/ha, postemergence, visual rating, scale 0 to 100 (0 no effect, 100 complete control), read-out: Plant response rating, Pigweed): 85%
pest or weed control at 62 g/ha (pigweed; Amaranthus retroflexus, post-emergence, Postemergence, 62 g ai/ha, scale 0 to 100 (0 no effect, 100 complete control), read-out: Plant response rating, Pigweed): 85%
Soybean plant response rating (crop injury, 0-100 scale) at 16 g/ha (soybean; Glycine max, post-emergence, 16 g ai/ha, postemergence, 0 is no effect, 100 is complete control): 60%
Soybean plant response rating (crop injury, 0-100 scale) at 125 g/ha (soybean; Glycine max, post-emergence, 125 g ai/ha, postemergence, visual rating, scale 0 to 100 (0 no effect, 100 complete control), read-out: Plant response rating, Soybean): 90%
Soybean plant response rating (crop injury, 0-100 scale) at 62 g/ha (soybean; Glycine max, post-emergence, Postemergence, 62 g ai/ha, scale 0 to 100 (0 no effect, 100 complete control)): 65%
plant injury at 16 g/ha (oilseed rape; Brassica napus, post-emergence, 16 g ai/ha, postemergence, 0 is no effect, 100 is complete control, read-out: Plant response rating (0 to 100), Oilseed Rape): 5%
plant injury at 125 g/ha (oilseed rape; Brassica napus, post-emergence, 125 g ai/ha, postemergence, visual rating, scale 0 to 100 (0 no effect, 100 complete control), read-out: Plant response rating, Oilseed Rape): 60%
plant injury at 62 g/ha (oilseed rape; Brassica napus, post-emergence, Postemergence, 62 g ai/ha, scale 0 to 100 (0 no effect, 100 complete control), read-out: Plant response rating, Oilseed Rape): 70%
pest or weed control at 16 g/ha (kochia; Bassia scoparia, post-emergence, 16 g ai/ha, postemergence, 0 is no effect, 100 is complete control, read-out: Plant response rating (0 to 100), Kochia): 75%
pest or weed control at 125 g/ha (kochia; Bassia scoparia, post-emergence, 125 g ai/ha, postemergence, visual rating, scale 0 to 100 (0 no effect, 100 complete control), read-out: Plant response rating, Kochia): 95%
pest or weed control at 62 g/ha (kochia; Bassia scoparia, post-emergence, Postemergence, 62 g ai/ha, scale 0 to 100 (0 no effect, 100 complete control), read-out: Plant response rating, Kochia): 95%
pest or weed control at 16 g/ha (velvetleaf; Abutilon theophrasti, post-emergence, 16 g ai/ha, postemergence, 0 is no effect, 100 is complete control, read-out: Plant response rating (0 to 100), Velvetleaf): 30%
pest or weed control at 125 g/ha (velvetleaf; Abutilon theophrasti, post-emergence, 125 g ai/ha, postemergence, visual rating, scale 0 to 100 (0 no effect, 100 complete control), read-out: Plant response rating, Velvetleaf): 55%
pest or weed control at 62 g/ha (velvetleaf; Abutilon theophrasti, post-emergence, Postemergence, 62 g ai/ha, scale 0 to 100 (0 no effect, 100 complete control), read-out: Plant response rating, Velvetleaf): 50%

Reference: patent publication US9695155B2, “Herbicidal substituted pyrimidinyloxy benzene compounds” (E. I. DU PONT DE NEMOURS AND COMPANY, priority 2013, dated 2017)
